How the values were obtained:
[1] = test system: in vitro formed nucleus pulposus tissues; conditions: TNF-alpha 1-5 ng/mL, within 48 hours; cited from earlier work
[2] = test system: CGRP expression in dorsal root ganglion (DRG) neurons innervating intervertebral discs; conditions: cited from earlier work
Dermal fibroblasts = assay: Growth factor production by dermal fibroblasts cultured 48 hours with CBD; format: cell-based; conditions: various CBD concentrations, OPTI-MEM with 10% fetal calf serum
Excerpt: (§1) In the groupings of three bars, the middle bar at each concentration represents 100,000 fibroblasts co-cultured with CBD at the indicated concentration. The right bar at each concentration represents 200,000 fibroblasts co-cultured with CBD at the indicated concentration. The left bar at each concentration represents 0 fibroblasts co-cultured with CBD at the indicated concentration;
as §1, with “concentration.” for “concentration;”
Dermal fibroblasts were obtained from Allcells, Inc. and cultured for 48 hours in the indicated concentrations of CBD. […] Cultures were performed in OPTI-MEM media with 10% fetal calf serum.

TNF-alpha
proteoglycan content of NP tissue relative to original [1]: 25%

etanercept
CGRP expression in DRG neurons innervating injured discs ([2]; direct intradiscal application immediately after disc puncture, rats): suppressed CGRP expression | proportion of CGRP-immunoreactive neurons among FluoroGold-labeled neurons ([2]; rat L4/5 disc puncture, direct intradiscal application, sham 21%±4%, puncture+saline 32%±7%): 23%±4%

C=C(C)C1CCC(C)=CC1c1c(O)cc(CCCCC)cc1O (centres unmarked) [CBD, 2-[3-methyl-6-(1-methylethenyl)-2-cyclohexen-1-yl]-5-pentyl-1,3-benzenediol]
IGF-1 production from fibroblasts (Dermal fibroblasts; FIG. 1): augmentation of IGF-1 was observed | EGF-1 production from fibroblasts (Dermal fibroblasts; FIG. 2): augmentation of EGF-1 was observed

— patent US20220395572A1, “C[…] THERAPY FOR TREATMENT OF DISC DEGENERATIVE DISEASE” (FIGENE, LLC, priority 2019, published 2022)
